PubChem BioAssay (NCI)
“And” between values parts separate entries of the source, which are not always exact repeats. Equal values may be shown once.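 Cells were grown in 96-well plates and exposed to each compound for 48 hours at five concentrations; endpoints were interpolated linearly between bracketing concentrations, or set to the highest concentration if not reached. GI50 marks 50% less growth. TGI denotes the concentration required for complete inhibition of growth.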

How the values were obtained:
Assay in all cases: NCI anticancer screen, dose series, 48 h
ACHN renal = system: ACHN renal
786-0 renal = system: 786-0 renal
NCI-H226 lung = system: NCI-H226 lung
SF-268 CNS = system: SF-268 CNS
U251 CNS = system: U251 CNS
K-562 leukemia = system: K-562 leukemia
RXF 393 renal = system: RXF 393 renal
NCI-H23 lung = system: NCI-H23 lung
RPMI-8226 leukemia = system: RPMI-8226 leukemia
HOP-92 NSCLC = system: HOP-92 NSCLC

Structure (SMILES)	TGI (ACHN renal)	TGI (786-0 renal)	TGI (NCI-H226 lung)	TGI (SF-268 CNS)	TGI (U251 CNS)	TGI (K-562 leukemia)	TGI (RXF 393 renal)	TGI (NCI-H23 lung)	TGI (RPMI-8226 leukemia)	TGI (HOP-92 NSCLC)	GI50 (ACHN renal)	GI50 (786-0 renal)	GI50 (NCI-H226 lung)	GI50 (SF-268 CNS)	GI50 (U251 CNS)	GI50 (K-562 leukemia)	GI50 (RXF 393 renal)	GI50 (NCI-H23 lung)	GI50 (RPMI-8226 leukemia)	GI50 (HOP-92 NSCLC)
O=C1CCC2(c3ccc(F)cc3)Nc3ccccc3N12 (configuration not stated)	> 100 µM	> 100 µM	> 100 µM	> 100 µM	> 100 µM	> 100 µM	> 100 µM	> 100 µM	> 100 µM	> 100 µM	–	–	–	–	–	–	–	–	–	–
COc1ccccc1-c1cc2c3c(nc4ccccc42)C(=O)c2cccnc2-c3n1	30.1 µM	29.7 µM	33 µM	38.9 µM	11.4 µM	> 100 µM	46.8 µM	25.3 µM	> 100 µM	> 100 µM	13.7 µM	15.5 µM	15.3 µM	17.6 µM	3.77 µM	> 19.6 µM	16.7 µM	9.06 µM	34.6 µM	19.1 µM
COC(=O)C(=O)C(C(=O)C(=O)Nc1ccccc1C(=O)OC)c1nc2ccc(C(=O)c3ccccc3)cc2[nH]c1=O (configuration not stated)	> 100 µM	> 100 µM	> 100 µM	> 100 µM	> 100 µM	> 100 µM	> 100 µM	> 100 µM	> 100 µM	> 100 µM	–	–	–	–	–	–	–	–	–	–
CN(C)c1c(Cl)c(=O)oc2c1ccc1nc(-c3ccccc3)sc12	> 100 µM	> 100 µM	> 100 µM	> 100 µM	> 100 µM	> 100 µM	> 100 µM	> 100 µM	> 100 µM	> 100 µM	–	–	–	–	–	–	–	–	–	–
O=C(Cn1ccnc1[N+](=O)[O-])N(CCO)CCO	> 250 µM	> 250 µM	> 1250 µM	> 1250 µM	> 1250 µM	> 1250 µM	> 1250 µM	> 1250 µM	250 µM and > 1250 µM	> 1250 µM	–	–	> 1250 µM	> 1250 µM	> 1250 µM	> 1250 µM	> 1250 µM	> 1250 µM	> 1250 µM	> 250 µM
Cc1c(Cl)ccc2c1NC(=O)C2(O)CC(=O)c1ccc(Cl)cc1Cl (configuration not stated)	> 50 µM	> 50 µM	> 50 µM	> 50 µM	> 50 µM	> 50 µM	48.9 µM	> 50 µM	> 50 µM	> 50 µM	–	–	–	–	–	–	–	–	–	–
C=CC1CC12C(=O)C1OC2(C)C2C(=O)c3ccccc3C(=O)C12 (configuration not stated)	> 100 µM	> 100 µM	> 100 µM	> 92.5 µM	> 100 µM	6.94 µM	> 100 µM	> 59.8 µM	99.2 µM	> 100 µM	57.3 µM	> 52.5 µM	> 76.2 µM	> 54 µM	38.7 µM	2.3 µM	35.2 µM	39.4 µM	28.2 µM	> 77.6 µM
CC(C)(C)c1nc2c(o1)C(=Nc1ccccc1)c1ccccc1C2=O	26.6 µM	64.3 µM	23.5 µM	21 µM	14 µM	44.8 µM	14.7 µM	5.29 µM	50 µM	23.8 µM	–	–	–	–	–	–	–	–	–	–
CCc1nc2c(O)ccc(O)c2nc1C	23 µM	26.3 µM	29.9 µM	34.2 µM	30.2 µM	> 20.8 µM	25.5 µM	33.4 µM	> 43.8 µM	13.7 µM	–	–	–	–	–	–	–	–	–	–
CC(NC(=O)c1ccccc1)C(=O)N(Cc1ccccc1)Cc1ccccc1 (configuration not stated)	> 100 µM	> 100 µM	56.3 µM	> 100 µM	91.7 µM	43.5 µM	98.4 µM	60.4 µM	45.7 µM	68.7 µM	–	–	–	–	–	–	–	–	–	–
COc1cc(OC)c(-c2cc(=O)c3c(OC)c(OC)c(OC)c(OC)c3o2)cc1OC	> 100 µM	> 100 µM	> 100 µM	> 100 µM	> 100 µM	> 100 µM	> 100 µM	> 100 µM	> 100 µM	59 µM	–	–	–	–	–	–	–	–	–	–
Cc1nc2sc(C(=O)Nc3cccc4ccccc34)c(N)c2cc1C(C)O (configuration not stated)	> 50 µM	> 50 µM	> 50 µM	> 50 µM	> 50 µM	> 50 µM	> 50 µM	> 50 µM	> 50 µM	> 47 µM	0.284 µM	0.227 µM	0.28 µM	0.367 µM	0.227 µM	0.157 µM	0.151 µM	0.394 µM	0.223 µM	1.03 µM
COc1ccc(-c2cc3cccc(OC)c3c(=O)o2)cc1OC	> 100 µM	> 100 µM	86.5 µM	> 100 µM	> 100 µM	> 100 µM	> 100 µM	> 100 µM	> 100 µM	> 100 µM	59.3 µM	50.2 µM	2.35 µM	39.7 µM	12.4 µM	26.3 µM	32 µM	47.9 µM	29.7 µM	37.2 µM
COC(=O)c1cnc2nc(N3CCOCC3)[nH]n2c1=O	> 100 µM	> 100 µM	> 100 µM	> 100 µM	> 100 µM	> 100 µM	> 100 µM	> 100 µM	> 100 µM	> 100 µM	–	–	–	–	–	–	–	–	–	–
O=C1C(=O)c2ccc(Br)cc2-c2cc(Br)ccc21	–	> 56.3 µM	> 100 µM	8.58 µM	9.04 µM	> 29.8 µM	7.36 µM	13.2 µM	6.82 µM	9.5 µM	1.52 µM	10.4 µM	> 60.1 µM	1.35 µM	1.42 µM	0.799 µM	1.85 µM	2.56 µM	1.63 µM	1.36 µM
CN(C(=O)C1CCCCC1)c1ccccc1I(=O)=O	> 100 µM	> 100 µM	> 100 µM	> 100 µM	> 100 µM	27.4 µM	> 100 µM	> 100 µM	33.7 µM	67 µM	39.4 µM	43.3 µM	> 100 µM	36.8 µM	31.3 µM	12.5 µM	68.5 µM	45.2 µM	12.9 µM	26.1 µM
CC(C)(C)C1CC[C@H]2c3c([nH]c4ccc(Br)cc34)[C@H]3C(=O)N(c4ccccc4)C(=O)[C@H]3[C@H]2C1 (some centres not stated)	> 100 µM	23.6 µM	81.8 µM	95.1 µM	36.5 µM	> 100 µM	> 100 µM	> 100 µM	> 100 µM	78.7 µM	–	–	–	–	–	–	–	–	–	–
CCCOC(=O)N[C@H]1CCc2c(Br)c(OC)c(OC)c(OC)c2-c2ccc(SC)c(=O)cc21	30.4 µM	11.4 µM	6.71 µM	17.8 µM	15.1 µM	> 100 µM	24.8 µM	> 57.3 µM	10.4 µM	6.28 µM	0.0431 µM	0.0407 µM	0.0341 µM	0.0455 µM	0.0363 µM	< 0.01 µM	0.0397 µM	0.0348 µM	0.0259 µM	0.0411 µM
COC(=O)OCC1OC(N2C(=O)NC(=O)C(I)C2N=[N+]=[N-])CC1OC(=O)OC (configuration not stated)	> 100 µM	> 100 µM	> 100 µM	> 100 µM	> 100 µM	> 100 µM	> 100 µM	> 100 µM	> 100 µM	> 100 µM	–	–	–	–	–	–	–	–	–	–
COc1ccc(/C=C2/CN(C(=O)c3ccccc3F)C/C(=C\c3ccc(OC)cc3)C2=O)cc1	9.46 µM	4.37 µM	> 100 µM	18.9 µM	5.14 µM	> 100 µM	3.68 µM	24.3 µM	0.714 µM	39.6 µM	2.95 µM	2.04 µM	29.5 µM	4.28 µM	2.18 µM	3.49 µM	1.85 µM	5.03 µM	0.242 µM	10.3 µM
O=[N+]([O-])c1ccccc1S(=O)c1ccccc1 (configuration not stated)	> 100 µM	> 100 µM	> 100 µM	> 100 µM	> 100 µM	> 100 µM	> 100 µM	> 100 µM	> 100 µM	> 100 µM	–	–	–	–	–	–	–	–	–	–
COc1cc2c(cc1O)[C@H](C)C(c1ccc(Cl)cc1)O2 (some centres not stated)	27.8 µM	32 µM	70 µM	72.6 µM	69 µM	51.7 µM	77.5 µM	70.8 µM	25.6 µM	40.4 µM	–	–	–	–	–	–	–	–	–	–
O=C(c1ccccc1)c1ccc(-c2ccc(O)cc2)cc1	36.3 µM	> 66.8 µM	> 73.7 µM	57.3 µM	20.1 µM	> 60.7 µM	33.2 µM	42.7 µM	18.3 µM	30.3 µM	6.88 µM	17.8 µM	16.8 µM	5.85 µM	3.69 µM	2.92 µM	7.93 µM	6.16 µM	2.7 µM	5.63 µM
COc1ccc2c(c1)O/C(=C\c1cccc(OCC(=O)Nc3nc4ccccc4s3)c1)C2=O	> 100 µM	> 100 µM	> 100 µM	11 µM	53.3 µM	> 100 µM	3.99 µM	> 100 µM	> 100 µM	18.4 µM	12.7 µM	> 66.4 µM	42 µM	4.83 µM	12.6 µM	6.07 µM	1.96 µM	3.58 µM	4.87 µM	2.65 µM
CC1(C)CCC(S(=O)(=O)c2ccc3c(c2)/C(=N\O)c2cc(S(=O)(=O)N4CCC(O)(c5cccc(C(F)(F)F)c5)CC4)ccc2-3)CC1	1.41 µM	0.36 µM	0.0988 µM	0.0429 µM	0.0384 µM	0.0492 µM	0.185 µM	1.37 µM	0.09 µM	3.48 µM	0.0431 µM	0.145 µM	0.0292 µM	0.0198 µM	0.02 µM	0.0219 µM	0.053 µM	0.118 µM	0.0255 µM	0.517 µM
CN(C(=O)c1ccc(F)cc1C(F)(F)F)C1CCN(c2nnc(-c3ccnn3C)c3ccccc23)CC1	> 100 µM	> 100 µM	> 100 µM	> 100 µM	> 100 µM	> 100 µM	> 84.3 µM	> 100 µM	> 100 µM	> 92.9 µM	51.7 µM	> 100 µM	28.2 µM	> 74.5 µM	59.3 µM	27.3 µM	17.4 µM	29.3 µM	19.1 µM	16.5 µM
O=C(CC12CC3CC(CC(C3)C1)C2)NCCOCCOCCNC(=O)c1cc2c(o1)C(=O)c1ccccc1C2=O	2.72 µM	4.7 µM	3.94 µM	3.9 µM	2.81 µM	4.9 µM	2.65 µM	0.469 µM	4.43 µM	6.1 µM	1.35 µM	2.05 µM	1.65 µM	1.68 µM	1.37 µM	1.33 µM	1.34 µM	0.133 µM	1.56 µM	2.26 µM
COc1ccc(C(CC(=O)c2ccccc2)C(C(=O)c2ccccc2)C(c2ccc(OC)cc2)C2C(=O)NC(=O)NC2=O)cc1 (configuration not stated)	> 100 µM	> 100 µM	62 µM	75.4 µM	51.3 µM	> 100 µM	> 100 µM	> 100 µM	> 100 µM	50.2 µM	17.9 µM	27.8 µM	20 µM	12.8 µM	10.7 µM	39.1 µM	22.6 µM	37.3 µM	13.8 µM	2.3 µM
O=C1Nc2ccc(F)c3c(OCCO)cc(-c4ccc[nH]4)c1c23	7.2 µM	9.26 µM	12.8 µM	6.87 µM	6.3 µM	25 µM	4.98 µM	8.05 µM	8.18 µM	5.4 µM	0.608 µM	2.44 µM	1.47 µM	2.66 µM	0.9 µM	5.28 µM	0.987 µM	1.27 µM	1.82 µM	0.908 µM
O=S(=O)(Nc1ccc(-c2nc(-c3cccc(OCCN4CCOCC4)c3)c(-c3ccnc(Br)c3)[nH]2)cc1)c1ccccc1	> 100 µM	7.96 µM	40.6 µM	> 100 µM	46 µM	> 100 µM	6.78 µM	8.71 µM	> 100 µM	8.18 µM	2.99 µM	2.37 µM	3.1 µM	4.23 µM	2.92 µM	2.32 µM	2.26 µM	2.43 µM	2.5 µM	2.41 µM
